Entries after “also recorded” stand apart in the source; their conditions may differ.
Legend:
[1] = tested on: CT26 (Colorectal carcinoma cells); experiment: CT26 colorectal carcinoma model, intratumoural 5-FU / Lithium Chloride; type: in vivo, mice; settings: intratumoural thrice weekly; Lithium Chloride 200 mg/kg; 5-FU 20 mg/kg
Description: For routine tumour induction, 1×10^6 CT26 (Colorectal carcinoma cells) suspended in 200 μl of serum free DMEM were injected subcutaneously into the right flank of adult female Balb/c mice, after anaesthesia. Mice were randomly divided into experimental groups. Mice were treated at a tumour volume of approximately 60 mm^3 in volume (5-7 mm major diameter). All treatments were delivered in 50 μl volumes, administered directly into the tumour, thrice weekly with PBS (Control), Lithium Chloride (200 mg/kg), 5-FU (20 mg/kg) and a combination of both Lithium and 5-FU (200 mg/kg, 20 mg/kg). Following drug treatment, tumours were monitored by alternate day measurements in two dimensions, using Verniers Calipers. Tumor volumes were calculated according to the formula V=ab^2/6, where ‘a’ is the longest diameter of the tumor and ‘b’ is the longest diameter perpendicular to diameter ‘a’. Animals were culled when tumour volumes exceeded ˜500 mm^3 (no greater than 15 mm in diameter). […] Treatment of these animals was maintained until day 58, following which all treatments ceased.

OE21 [2] = experiment: Mitochondrial depolarization, JC-1 probe; type: cell-based, human; settings: 48 hour treatment
Description: (§1) Mitochondrial membrane potential was determined using the JC-1 probe (Molecular Probes). In non-apoptotic cells, JC1 accumulates as aggregates in the mitochondria, which stain red (FL2; 590 nm). At the onset of apoptosis, a loss of mitochondrial membrane potential (ΔΨm) releases the aggregated JC1, returning it to its monomeric form, which stains the cytosol green (FL1; 530 nm). Therefore, fluorescence of the JC-1 probe in the FL-2 channel decreases as mitochondrial membrane integrity is lost, while the fluorescence in FL-1 channel increases. Cells were incubated in JC1 (7.5 μg/ml) at 37° C. for 15 mins, and washed prior to analysis by flow cytometry (FACScan, Becton Dickinson). Percentages denote the proportion of cells with depolarised mitochondria following 48 hour incubation with 5-Fluorouracil and represent at least three independent experiments.

OE33 [3] = experiment: Mitochondrial depolarization, JC-1 probe; type: cell-based, human; settings: 48 hour treatment
Description: as §1

OE19 [4] = experiment: Mitochondrial depolarization, JC-1 probe; type: cell-based, human; settings: 48 hour treatment
Description: as §1

KYSE450 [5] = experiment: Mitochondrial depolarization, JC-1 probe; type: cell-based, human; settings: 48 hour treatment
Description: as §1

OE21 [6] = experiment: Monodansylcadaverine (MDC)-labelled vacuoles; type: cell-based, human; settings: 25 μM
Description: (§2) MDC is an autofluorescent weak base that accumulates in acidic lysosomal vacuoles, showing high selectivity for autophagosomes, due to the high level of unhydrolyzed membrane lipids from engulfed organelles, which enhance MDC fluorescence. Cells were incubated with 0.1 mM MDC in PBS at 37° C. for 10 minutes (Biederbick et al., 1995), washed and immediately analyzed by fluorescent microscopy.

OE33 [7] = experiment: Monodansylcadaverine (MDC)-labelled vacuoles; type: cell-based, human; settings: 25 μM
Description: as §2

OE19 [8] = experiment: Monodansylcadaverine (MDC)-labelled vacuoles; type: cell-based, human; settings: 25 μM
Description: as §2

KYSE450 [9] = experiment: Monodansylcadaverine (MDC)-labelled vacuoles; type: cell-based, human; settings: 25 μM
Description: as §2

Compound: O=c1[nH]cc(F)c(=O)[nH]1 [5-FU, 5-fluorouracil]
- survival: day beyond which no animal of the group was alive / final animal euthanized [1]: 33 days
- mitochondrial depolarization (JC-1) (OE21 [2]): significant mitochondrial depolarization
- mitochondrial depolarization (JC-1) (OE33 [3]): mitochondrial depolarization
- mitochondrial depolarization (JC-1) (OE19 [4]): do not show caspase-3 activity or mitochondrial membrane depolarization
- mitochondrial depolarization (JC-1) (KYSE450 [5]): do not show caspase-3 activity or mitochondrial membrane depolarization; also recorded: do not exhibit membrane depolarization
- MDC staining pattern (OE21 [6]): MDC staining patterns are diffuse
- MDC staining pattern (OE33 [7]): MDC staining patterns are diffuse
- MDC staining pattern (OE19 [8]): accumulation of MDC (bright blue punctate staining) throughout the cytoplasm
- MDC staining pattern (KYSE450 [9]): accumulation of MDC (bright blue punctate staining) throughout the cytoplasm

— patent publication US9155761B2, “Method for the treatment of cancer” (UNIVERSITY COLLEGE CORK, NATIONAL UNIVERSITY OF IRELAND, …, priority 2009, dated 2015)
